Results from patent US11053207B2, “Indoleamine-2,3-dioxygenase inhibitor and preparation method therefor” (SHANGHAI INSTITUTE OF ORGANIC CHEMISTRY, CHINESE ACADEMY OF …, priority 2014, dated 2021).
Values joined by “and” are separate entries in the source; they are usually repeats but may differ in a detail not shown here. Identical values can stand only once. Like-named read-outs stand apart in the source and are kept apart here.

How the values were obtained:
Hela cells = assay: Test for cell activity (Hela cells, interferon γ, kynurenine read at 480 nm); format: cell-based; settings: human interferon γ 50 ng/mL, 48 h
Method: Hela cells (100 μL) were inoculated on a 96-well plate at an inoculation amount of 5×10^3 per well and grown overnight. The next day, after the compound was diluted, 1 μL was added to a 96-well plate and then 100 μL of medium containing human interferon y (final concentration of 50 ng/mL) was added to the 96-well plate to allow the final volume to be 200 μL. 48 h after incubating, 140 μL of supernatant in each well was transferred to a new 96-well plate. 10 μL of 6.1 N trichloroacetic acid was added to each well and mixed and incubated at 50° C. for 30 min, IDO catalyzed N-formyl canine urea to become canine urea. The reaction mixture was centrifuged at 2500 rpm for 10 minutes to remove the precipitate. 100 μL of supernatant in each well was transferred to a new 96-well plate and mixed with 100 μL of 2% dimethylaminobenzaldehyde acetic acid solution. After the canine urea was separated, the value was measured at 480 nm using a SPECTRAmax i3 reader.

[1] = Pharmacokinetics of compound 6 in rats (intragastric, intravenous); format: in vivo, SD rats; settings: for Vd: read-out: Vss
Method: 6 SD rats, male, weight 180-200 g, intragastric or intravenous administration of compound 6 (Table 3):
For intragastric administration, the compound was formulated into a suspension with 1% MC, and for intravenous injection the compound was formulated with DMSO: 20% PEG400 (5:95). Fasting for 12 hours before the test, free drinking water. The rats were all fed 2 hours after administration.
Intragastric administration: 0.25, 0.5, 1.0, 2.0, 4.0, 6.0, 8.0 and 24 h after administration;
Intravenous administration: 5 min, 0.25, 0.5, 1.0, 2.0, 4.0, 6.0, 8.0 and 24 h after administration;
At the above set point, the venous blood was taken from the posterior venous plexus of the rat eyes, and placed in a EDTA-2K tube, centrifuged at 11000 rpm for 5 min, the plasma was separated and frozen in a −20° C. refrigerator.
The concentration of compound 6 in rat plasma was determined by LC/MS/MS.
Pharmacokinetic parameters after administration were calculated using the non-compartmental model of the WinNonlin 5.3 software (Pharsight, USA).
Peak concentration Cmax and peak time Tmax are measured value;
Drug area under the curve AUC0−t value: using trapezoidal method; AUC0−∞=AUC0−t+Ct/ke, Ct is the blood concentration at the last measurable time point, ke is the elimination rate constant;
Elimination half-life t1/2=0.693/ke;
Mean residence time MRT=AUMC/AUC.
Clearance rate CL=D/AUC0−∞;
Steady state distribution volume Vss=CL×MRT
Absolute Bioavailability F=(AUCintragastric×Dintravenous)/(AUCintravenous×Dintragastric)×100%

[2] = Pharmacokinetics of compound 6 in ICR mice after oral compound 13 (prodrug); format: in vivo; settings: for AUMC0-inf / AUMC0-t / Kel / MRTPO: compound 6 in ICR mice after oral compound 13 30 mg/kg
Method: Compound 13 was orally administered to ICR mice. Blood samples were collected at different time points. LC-MS/MS was used to determine the concentration of compound 6 in the plasma of mice after administration of the test substance, and the relevant pharmacokinetic parameters were calculated, the pharmacological properties of compound 6 in mice was investigated.
Experimental design: 3 ICR mice, provided by Suzhou Zhaoyan New Drug Research and Development Co., Ltd.; the experiment was carried out according to Table 6.
Each animal was anesthetized with isoflurane and thereafter about 25 μL of blood was collected through the eyepit, anticoagulated with EDTAK2, the collecting time points were: before administration of the test substance (0 hr) and 15 min, 30 min, 1 h, 2 h, 4 h, 6 h, 8 h and 24 h after administration of the test substance. Blood samples were collected and placed on ice and the plasma was centrifuged and separated within 1 hour (centrifugal conditions: 5000 rpm, 10 minutes, 4° C.). The collected plasma was stored at −20° C. before analysis.
Data acquisition and control system software was the Analyst1.5.1 software (Applied Biosystem). The sample peak integral method was automatic integration; The ratio of the peak area of the sample and the peak area of the internal standard was taken as the index and the concentration of the sample was regressed. Regression method: linear regression, the weight coefficient was 1/X^2. Pharmacokinetic parameters were analyzed with a non-compartmental model using WinNonlin Professional v6.3 (Pharsight, USA). Cmax is the measured maximum blood concentration, and the area under the blood concentration-time curve AUC(0→t) was calculated from the trapezoidal method, and Tmax is the peak blood concentration time after administration. The experimental data is expressed as “mean±SD, n≥3” or “mean” (mean, n=2).

[3] = intragastric 10 mg/kg, individual rat
[4] = intravenous 1 mg/kg, individual rat
[5] = male, SD, rat, plasma, iv, 1 mg/kg, intravenous 1 mg/kg, individual rat
[6] = male, SD, rat, plasma, iv, 1 mg/kg, intravenous 1 mg/kg, mean
[7] = male, SD, rat, plasma, po, 10 mg/kg, intragastric 10 mg/kg, individual rat
[8] = male, SD, rat, plasma, po, 10 mg/kg, intragastric 10 mg/kg, mean

CS(=O)(CCNc1nonc1/C(=N/O)Nc1ccc(F)c(Br)c1)=NC#N (racemic) [compound 6, (±)(Z)—N-(3-bromo-4-fluorophenyl)-N′-hydroxy-4-((2-(thio-methylsulfoxidecyanoimine)ethyl)amino)-1,2,5-oxadiazole-3-carboxamidine]
IC50 (Hela cells): 1.8 nM
AUC0-t [1, 3]: 2817 ng·h/mL and 2795 ng·h/mL
AUC0-∞ [1, 3]: 3007 ng·h/mL and 3008 ng·h/mL
Cmax [1, 3]: 854 ng/mL and 659 ng/mL
MRT [1, 3]: 3.27 h and 3.47 h
Tmax [1, 3]: 1.00 h
t1/2 [1, 3]: 1.80 h
AUC0-t ([1]; intragastric 10 mg/kg, mean): 2651 ng·h/mL
AUC0-t [1, 4]: 505 ng·h/mL and 547 ng·h/mL
AUC0-∞ [1, 4]: 534 ng·h/mL and 555 ng·h/mL
CL [1, 4]: 31.2 mL/min/kg and 30 mL/min/kg
MRT [1, 4]: 2.03 h and 1.67 h
Vss [1, 4]: 3.79 L/kg and 3.02 L/kg
t1/2 [1, 4]: 2.51 h and 1.32 h
AUC0-t ([1]; intravenous 1 mg/kg, mean): 533 ng·h/mL
CL ([1]; intravenous 1 mg/kg, mean): 30.3 mL/min/kg
AUC(0-inf) [1, 5]: 563 ng·h/mL
clearance [1, 5]: 29.7 mL/min/kg
half-life [1, 5]: 1.71 h
AUC0-t ([1]; male, SD, rat, plasma, iv, 1 mg/kg, intravenous 1 mg/kg, individual rat, read-out: AUC0-t): 546 ng·h/mL
MRT ([1]; male, SD, rat, plasma, iv, 1 mg/kg, intravenous 1 mg/kg, individual rat, read-out: MRT): 1.91 h
Vd [1, 5]: 3.39 L/kg
AUC(0-inf) [1, 6]: 551 ng·h/mL
clearance [1, 6]: 30.3 mL/min/kg
half-life [1, 6]: 1.85 h
AUC0-t ([1]; male, SD, rat, plasma, iv, 1 mg/kg, intravenous 1 mg/kg, mean, read-out: AUC0-t): 533 ng·h/mL
MRT ([1]; male, SD, rat, plasma, iv, 1 mg/kg, intravenous 1 mg/kg, mean, read-out: MRT): 1.87 h
Vd [1, 6]: 3.4 L/kg
bioavailability ([1]; male, SD, rat, plasma, oral, intragastric 10 mg/kg vs intravenous 1 mg/kg, dose normalized, read-out: F (absolute bioavailability)): 49.8%
AUC(0-inf) [1, 7]: 2480 ng·h/mL
half-life [1, 7]: 1.58 h
AUC0-t ([1]; male, SD, rat, plasma, po, 10 mg/kg, intragastric 10 mg/kg, individual rat, read-out: AUC0-t): 2340 ng·h/mL
Cmax ([1]; male, SD, rat, plasma, po, 10 mg/kg, intragastric 10 mg/kg, individual rat, read-out: Cmax): 593 ng/mL
MRT ([1]; male, SD, rat, plasma, po, 10 mg/kg, intragastric 10 mg/kg, individual rat, read-out: MRT): 3.35 h
Tmax ([1]; male, SD, rat, plasma, po, 10 mg/kg, intragastric 10 mg/kg, individual rat, read-out: Tmax): 2 h
AUC(0-inf) [1, 8]: 2830 ng·h/mL
half-life [1, 8]: 1.73 h
AUC0-t ([1]; male, SD, rat, plasma, po, 10 mg/kg, intragastric 10 mg/kg, mean, read-out: AUC0-t): 2650 ng·h/mL
Cmax ([1]; male, SD, rat, plasma, po, 10 mg/kg, intragastric 10 mg/kg, mean, read-out: Cmax): 702 ng/mL
MRT ([1]; male, SD, rat, plasma, po, 10 mg/kg, intragastric 10 mg/kg, mean, read-out: MRT): 3.36 h
Tmax ([1]; male, SD, rat, plasma, po, 10 mg/kg, intragastric 10 mg/kg, mean, read-out: Tmax): 1.33 h
pharmacokinetic parameters (overall judgement) ([2]; ICR mice, after oral compound 13): excellent pharmacokinetic parameters
AUMC0-inf ([2]; individual mouse): 46297 hr*hr*ng/mL and 13854 hr*hr*ng/mL and 21447 hr*hr*ng/mL
AUMC0-t ([2]; individual mouse): 19793 hr*hr*ng/mL and 12189 hr*hr*ng/mL and 16309 hr*hr*ng/mL
Kel ([2]; individual mouse): 0.0695 h⁻¹ and 0.156 h⁻¹ and 0.123 h⁻¹
MRTPO ([2]; individual mouse): 15.0 h and 6.25 h and 7.99 h
AUMC0-inf ([2]; mean): 27199 hr*hr*ng/mL
AUMC0-t ([2]; mean): 16097 hr*hr*ng/mL
Kel ([2]; mean): 0.116 h⁻¹
MRTPO ([2]; mean): 9.76 ± 4.64 h and 9.76 h
